# Test results as given in patent US9624269B2, “Peptide inhibitors of BACE1” (GENENTECH, INC., priority 2011, dated 2017).
# Positions of bridges follow the written chain, without caps; N, C: chain ends. Residues, ends and D or L forms follow the SMILES beside them.
# How the values were obtained:
# [1] = target: T1, BACE1 (Homo sapiens, UniProt P56817); test: Biotinylated BACE020 competition binding ELISA; set-up: extracellular domain (ECD) (residues 22-457) and a C-terminal His8 tag; made in house; host or cells: Chinese hamster ovary cells (transient); settings: concentration dependent addition of competitor
# Description: The coated wells were washed with buffer (PBS, 0.05% Polysorbate 20) and blocked with assay buffer (PBS, pH 7.4, 0.5% BSA, 0.05% Tween 20, 15 ppm Proclin) for 1 h at room temperature with gentle shaking.
# Target sequence in this assay (P56817 22-457): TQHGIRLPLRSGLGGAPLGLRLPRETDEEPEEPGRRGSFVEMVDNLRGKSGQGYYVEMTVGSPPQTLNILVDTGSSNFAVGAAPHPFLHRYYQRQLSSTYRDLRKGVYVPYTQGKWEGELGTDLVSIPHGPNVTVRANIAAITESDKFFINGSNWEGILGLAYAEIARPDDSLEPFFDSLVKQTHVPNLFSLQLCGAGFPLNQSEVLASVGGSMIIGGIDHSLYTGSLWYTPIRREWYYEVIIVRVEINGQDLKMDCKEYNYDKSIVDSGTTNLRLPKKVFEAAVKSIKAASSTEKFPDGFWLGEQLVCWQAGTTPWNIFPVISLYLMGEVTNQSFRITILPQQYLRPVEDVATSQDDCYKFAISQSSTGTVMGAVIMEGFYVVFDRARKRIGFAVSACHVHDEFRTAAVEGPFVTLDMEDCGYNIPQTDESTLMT
# [2] = target: T2, human BACE1 (rhBACE1) (Homo sapiens, UniProt P56817); test: BACE1 fluorescence polarization (FP) competition binding assay with 5-TAMRA-BACE020 probe; settings: competition with 3 nM 5-TAMRA-BACE020, 12 nM rhBACE1, pH 4.4
# Description: BACE1 Fluorescence Polarization Competition Binding Assay.
# BACE1 binding assays were carried out in a final volume of 10 μL per well in black 384-well microplates (Proxiplate-Plus; Perkin Elmer, Waltham, Mass.). A standard binding reaction, initiated by the addition of 5 μL 2× enzyme to 2.5 μL of 4× binding probe and […] of 4× inhibitor, contained 12 nM rhBACE1, 3 nM 5-TAMRA-[…] (SEQ ID NO: 16) (5-TAMRA-BACE020), 50 mM NaOAc, pH 4.4 with 0.1% CHAPS. The reaction was permitted to proceed towards equilibrium for 2 h at ambient temperature prior to fluorescence polarization measurement using Envision (Perkin Elmer). The parallel and perpendicular fluorescent emissions measured in each well at 595 nm (excitation 531 nm polarized light) were used to determine the milli-polarization level (mP) using the following formula: mP=1000*(S-G*P)/(S+G*P) where S=parallel emission, P=perpendicular emission and G=0.65. The mP value in each well was plotted as a function of inhibitor concentration and the 50% inhibition (IC50) values were determined using a nonlinear least squares fit of the data to a four parameter equation using Prism 5.0 software (GraphPad Software, San Diego, Calif.). 5-TAMRA-labeled BACE020 was purchased from American Peptide Company, Inc (Sunnyvale, Calif.) and solubilized in DMSO to 100 mM for storage.
# The affinities of BACE1 peptide ligands were measured using the abovementioned competition binding FP assay for determining IC50 values with serially diluted peptides. A Caliper assay was used to measure the inhibition of BACE1 enzymatic activity by peptide ligands. […] Furthermore, the IC50 values measured by the Caliper assay for peptides BACE017-021 and BACE025-028 are consistent with those measured by the HTRF assay.
# Target sequence in this assay (P56817 46-501): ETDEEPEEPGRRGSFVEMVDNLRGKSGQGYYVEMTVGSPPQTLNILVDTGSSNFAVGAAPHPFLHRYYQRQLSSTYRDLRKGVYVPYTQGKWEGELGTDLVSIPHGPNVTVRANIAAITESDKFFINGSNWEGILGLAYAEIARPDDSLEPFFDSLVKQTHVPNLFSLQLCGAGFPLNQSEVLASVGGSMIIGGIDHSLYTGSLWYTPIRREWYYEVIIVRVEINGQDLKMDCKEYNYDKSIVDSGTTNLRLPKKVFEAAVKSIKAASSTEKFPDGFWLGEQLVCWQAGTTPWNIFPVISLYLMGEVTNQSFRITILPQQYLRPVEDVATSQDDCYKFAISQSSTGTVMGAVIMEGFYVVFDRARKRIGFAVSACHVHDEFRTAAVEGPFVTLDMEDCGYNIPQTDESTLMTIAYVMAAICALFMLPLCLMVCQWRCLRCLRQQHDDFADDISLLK
# [3] = system: Aβ1-40 production in 293-hAPP cells; test: Aβ1-40 assay in 293-hAPP cells; type: cell-based, human; settings: 293-HEK cells stably transfected with APP, 24 h
# Description: Aβ1-40 Assay in 293-hAPP Cells.
# Aβ1-40 production was measured in 293-HEK cells stably expressing wild-type human APP(695) complementary DNA (cDNA) (293-hAPP). Cells were seeded overnight at 3×10^4 cells per well in a 96-well plate. Fresh media [Dulbecco's modified Eagle's medium (DMEM)+10% fetal bovine serum (FBS)] containing various inhibitors were incubated with the 293-hAPP cells for 24 h. The cellular medium was harvested and assayed for the presence of Aβ1-40 with an Aβ1-40 HTRF assay (CisBio) according to the manufacturer's instructions. Aβ1-40 values were normalized for cell viability, as determined with the CellTiter-Glo Luminescent Cell Viability Assay (Promega). Experiments were performed at least 3 times, and each point in each experiment was repeated in duplicate. Data was plotted with a 4-parameter nonlinear regression curve-fitting program (KaleidaGraph, Synergy Software).
# [4] = target: T2, human BACE1 (rhBACE1); test: Caliper BACE1 activity assay (microfluidic capillary electrophoresis); type: biochemical; set-up: containing human BACE1 (extracellular domain); settings: 12 nM rhBACE1, 1 μM FAM-substrate, pH 4.4
# Description: An MCE assay reactions can be carried out in a standard enzymatic reaction, initiated by the addition of substrate to enzyme and 4× compound, containing human BACE1 (extracellular domain), amyloid precursor protein beta secretase active site peptide (FAM-[…]-CONH2 (SEQ ID NO: 20)), 50 mM NaOAc pH 4.4 and 0.1% CHAPS. After incubation for 60 minutes at ambient temperature, the product and substrate in each reaction is separated using a 12-sipper microfluidic chip analyzed on an LC3000® (both, Caliper Life Sciences). The separation of product and substrate is optimized by choosing voltages and pressure using the manufacturer's optimization software. Substrate conversion is calculated from the electrophoregram using HTS Well Analyzer software (Caliper Life Sciences).
# BACE1, BACE2 and Cathepsin D Activity Assay Using Microfluidic Capillary Electrophoresis (MCE).
# BACE1, BACE2, and Cathepsin D reactions were carried out in a final volume of 20 μl per well in a 384-well microplate using a Caliper LabChip 3000 (Hopkinton, Mass.). A standard enzymatic reaction, initiated by the addition of 10 μ12× substrate to 5 μl of 4× enzyme and 5 μl of 4× peptide or small molecule inhibitor, contained 12 nM rhBACE1, 1 μM FAM-[…]-amide (SEQ ID NO: 20), 50 mM NaOAc, pH 4.4, 0.1% CHAPS. The same reaction conditions were used for rhBACE2 (5 nM) and Cathepsin D (6 nM) (Cat. No. 219394; EMD Biosciences, San Diego, Calif.). After incubation for 60 min at room temperature, the product and substrate in each reaction were separated using a 12-sipper microfluidic chip. Separation of product and substrate was optimized by choosing voltages and pressure using the Caliper Optimizer software. The separation buffer contained 100 mM HEPES, pH 7.2, 0.015% Brij-35, 0.1% Coating Reagent #3, 10 mM EDTA and 5% DMSO. The separation conditions used a downstream voltage of −500 V, an upstream voltage of −2250 V, and a screening pressure of −1.2 psi. The product and substrate fluorescence was excited at 488 nm and detected at 530 nm. Substrate conversion was calculated from the electrophoregram using the Caliper HTS Well Analyzer software.
# Target sequence in this assay (P56817 46-457 limits assumed): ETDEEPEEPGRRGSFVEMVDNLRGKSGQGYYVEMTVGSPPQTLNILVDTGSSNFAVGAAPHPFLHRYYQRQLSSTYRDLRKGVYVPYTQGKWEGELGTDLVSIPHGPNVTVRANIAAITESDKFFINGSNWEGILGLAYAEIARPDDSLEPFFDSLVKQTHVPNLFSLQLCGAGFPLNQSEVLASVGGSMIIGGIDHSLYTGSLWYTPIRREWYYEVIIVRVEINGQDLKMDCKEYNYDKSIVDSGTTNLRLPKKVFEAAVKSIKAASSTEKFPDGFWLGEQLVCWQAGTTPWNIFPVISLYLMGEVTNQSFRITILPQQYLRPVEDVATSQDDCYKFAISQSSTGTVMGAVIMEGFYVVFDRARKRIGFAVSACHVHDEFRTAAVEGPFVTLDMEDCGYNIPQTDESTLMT
# [5] = target: T1, BACE1; test: Phage ELISA of peptide-displaying phage on plate-immobilized BACE1; type: binding; settings: 70 nM BMS1 peptide
# Description: BMS1, BMS2 and BMS4 are the same as peptide identifiers 1, 2 and 4, respectively as previously described (Kornacker, M. G. et al. (2005) Biochemistry 44: 11567-73). […] FIG. 1C depicts the competition of peptide-displaying phage bound to BACE1 with synthesized peptide BMS1. The bars represent phage ELISA signal in the absence (gray) or presence (black) of 70 nM BMS1 peptide. The phage peptide ID is as denoted in FIG. 1A.
# BACE017 is a BACE1 binding peptide ligand obtained from the solution panning of BACE1 against the naïve peptide library in the presence of 100 μM BACE010. BACE018-BACE021 are peptide sequences for BACE1 binding peptides derived from the affinity maturation of BACE017. The phage spot ELISA data is listed to indicate the relative binding affinity for individual clones. The column labeled with ELISA is the phage-binding signal to BACE1, s/n ratio represents the signal/noise ratio, in which “signal” is the data as shown in column “ELISA” and noise is the phage-binding signal to BSA as background nonspecific binding. […]
# After 4 rounds of binding selection, individual phage clones were analyzed in a high-throughput spot phage ELISA (Sidhu, S. S. et al. (2000) Methods Enzymol 328: 333-63) using plate-immobilized BACE1 as the target. The binding signal of the same phage particle to BSA was detected as non-specific binding noise. […]
# Target sequence in this assay (P56817 46-501): as the sequence (P56817 46-501) above
# [6] = target: T2, human BACE1 (rhBACE1); test: BACE1 HTRF activity assay (Bi27 substrate); type: biochemical; settings: for IC50: Bi27 27-mer substrate, pH 4.4
# Description: Briefly, a homogeneous time-resolved fluorescence (HTRF) assay can be used to measure BACE1 aspartyl protease activity with the use of an amyloid precursor protein BACE1 cleavage site peptide. For example, the Bi27 peptide (Biotin-[…] (SEQ ID NO:5), American Peptide Company)), is combined with BACE1 pre-incubated with an anti-BACE antibody in BACE reaction buffer (50 mM sodium acetate pH 4.4 and 0.1% CHAPS) in a 384-well plate (Proxiplate™, Perkin-Elmer). The proteolytic reaction mixture is incubated at ambient temperature for 75 minutes and is quenched by the addition of 5 μL HTRF detection mixture containing 2 nM Streptavidin-D2 and 150 nM of an anti-amyloid beta antibody labeled with Europium cryptate in detection buffer (200 mM Tris pH 8.0, 20 mM EDTA, 0.1% BSA, and 0.8M KF). The final reaction mixture is incubated at ambient temperature for 60 minutes and the TR-FRET signal is measured using an EnVision Multilabel Plate Reader™ (Perkin-Elmer) at an excitation wavelength of 320 nm and emission wavelengths of 615 and 665 nm.
# BACE1 HTRF Activity Assay.
# The BACE1 HTRF reaction was initiated by the addition of 2 μl of 600 nM Bi27 (Biotin-[…] (SEQ ID NO: 5), American Peptide Company) to 6 μl of 2.7 nM rhBACE1 pre-incubated with peptides or small molecule inhibitors in BACE1 reaction buffer (50 mM NaOAc pH 4.4 and 0.1% CHAPS) in a 384-well Proxiplate (Perkin Elmer). The 8 μl proteolytic reaction mixture was incubated at ambient temperature for 24 h and was quenched by the addition of 8 μl HTRF detection mixture containing 150 nM Streptavidin-D2 and 5 nM 6E10 labeled with Europium cryptate in detection buffer (200 mM Tris pH 8.0, 20 mM EDTA, 0.1% BSA, and 0.8 M KF). The final reaction mixture was incubated at room temperature for 60 min and the TR-FRET signal was measured on the EnVision Multilabel Plate Reader (Perkin Elmer) (excitation at 320 nm, emission at 615 and 665 nm). The data was analyzed using GraphPad Prism 5 (La Jolla, Calif.).
# Target sequence in this assay (P56817 46-501): as above
Compound,Competition for binding of biotinylated BACE020 to BACE1 [1],IC50 [2],IC50 [4],Binding of phage-displayed peptide to BACE1 in competition with peptide BMS1 [5],Effect on BACE1 activity in HTRF enzyme activity assay (in words) [6],IC50 [6],Inhibition of Aβ production in cells (in words) [3]
"Ac-NLTTYPYFIPLP-NH2 [BMS1, reference compound]",no competition,> 10000 nM,–,–,–,–,no inhibition
OM99-2 [reference compound],–,–,–,–,–,–,not all enzymatic inhibitors showed cellular activity
BACE011: Ac-SGCLDYPCFVPIS-NH2 (disulfide 3-8 (inferred)),–,–,–,competitive,activator,–,–

# More lines, main results first:
Competition for binding of biotinylated BACE020 to BACE1 [1],IC50 [2],IC50 [4],Binding of phage-displayed peptide to BACE1 in competition with peptide BMS1 [5],Effect on BACE1 activity in HTRF enzyme activity assay (in words) [6],IC50 [6],Compound,Inhibition of Aβ production in cells (in words) [3]
–,> 10000 nM,> 10000 nM,–,–,–,Ac-NEESMYSRLLGIGSG-NH2 [BACE027],no inhibition
–,> 10000 nM,–,competitive,very weak inhibitor,–,Ac-SGPYFIEYMSAV-NH2 [BACE010],–
–,10 ± 3 nM,–,–,–,10 nM,CSCC[C@@H]1NC(=O)[C@H](CC(C)C)NC(=O)[C@H](CCCNC(=N)N)NC(=O)[C@@H](NC(=O)[C@H](Cc2ccc(O)cc2)NC(=O)[C@@H]2CCCN2C(=O)[C@H](CO)NC(=O)[C@H](CC(C)C)NC(=O)[C@H](CCC(=O)O)NC(=O)[C@H](CC(N)=O)NC(C)=O)CSSC[C@@H](C(=O)N[C@@H](CC(=O)O)C(N)=O)NC(=O)CNC(=O)[C@H](CC(C)C)NC(=O)CNC1=O [BACE019] (Ac-NELSPYCRLMGLGCD-NH2; disulfide 7-14),–
–,11 ± 2 nM,11 ± 3 nM,–,best inhibitory activity,12 nM,CC[C@H](C)[C@@H]1NC(=O)CNC(=O)[C@H](CC(C)C)NC(=O)[C@H](CC(C)C)NC(=O)[C@H](CCCNC(=N)N)NC(=O)[C@@H](NC(=O)[C@H](Cc2ccc(O)cc2)NC(=O)[C@H](CCSC)NC(=O)[C@H](CO)NC(=O)[C@H](CCC(=O)O)NC(=O)[C@H](CCC(=O)O)NC(=O)[C@H](CC(N)=O)NC(C)=O)CSSC[C@@H](C(=O)NCC(N)=O)NC(=O)CNC1=O [BACE020] (Ac-NEESMYCRLLGIGCG-NH2; disulfide 7-14),potent inhibitor
–,> 10000 nM,> 10000 nM,–,–,438 nM,CC[C@H](C)[C@H](NC(=O)[C@H](Cc1c[nH]cn1)NC(=O)[C@H](CCC(=O)O)NC(=O)[C@H](CCC(=O)O)NC(=O)[C@H](CC(N)=O)NC(C)=O)C(=O)N[C@@H](Cc1ccc(O)cc1)C(=O)N[C@H]1CSSC[C@@H](C(=O)NCC(N)=O)NC(=O)CNC(=O)[C@H](CC(C)C)NC(=O)CNC(=O)[C@H](CC(C)C)NC(=O)[C@H](CC(C)C)NC(=O)[C@H](CCCNC(=N)N)NC1=O [BACE017] (Ac-NEEHIYCRLLGLGCG-NH2; disulfide 7-14),–
